Test results published in PubChem BioAssay AID1259407 (Chemical Carcinogenesis Research Information System (CCRIS), 2018).
Calls of active or inactive are those of the source. How the calls were made is not given here.

System: CCRIS mutagenicity, Ames/micronucleus/aberration tests
Assay: CCRIS mutagenicity studies
[1] = Test System: AMES SALMONELLA TYPHIMURIUM, Strain/Indicator: TA97, Metabolic Activation: NONE, Method: STANDARD PLATE
[2] = Test System: AMES SALMONELLA TYPHIMURIUM, Strain/Indicator: TA98, Metabolic Activation: NONE, Method: STANDARD PLATE
[3] = Test System: AMES SALMONELLA TYPHIMURIUM, Strain/Indicator: TA98, Metabolic Activation: RAT, LIVER, S-9, AROCLOR 1254, Method: STANDARD PLATE
[4] = Test System: AMES SALMONELLA TYPHIMURIUM, Strain/Indicator: TA100, Metabolic Activation: NONE, Method: STANDARD PLATE
[5] = Test System: AMES SALMONELLA TYPHIMURIUM, Strain/Indicator: TA100, Metabolic Activation: RAT, LIVER, S-9, AROCLOR 1254, Method: STANDARD PLATE
[6] = Test System: AMES SALMONELLA TYPHIMURIUM, Strain/Indicator: TA1535, Metabolic Activation: NONE, Method: STANDARD PLATE
[7] = Test System: AMES SALMONELLA TYPHIMURIUM, Strain/Indicator: TA1537, Metabolic Activation: NONE, Method: STANDARD PLATE

Cc1nc2c(c3[nH]c4ccccc4c13)C(=O)C(N1CCN(C)CC1)=CC2=O
mutagenic call [1]: inactive; negative
mutagenic call (Test System: AMES SALMONELLA TYPHIMURIUM, Strain/Indicator: TA97, Metabolic Activation: RAT, LIVER, S-9, AROCLOR 1254, Method: STANDARD PLATE): inactive; negative
mutagenic call [2]: inactive; negative
mutagenic call [3]: inactive; negative
mutagenic call [4]: active; positive
mutagenic call [5]: inactive; negative
mutagenic call (Test System: AMES SALMONELLA TYPHIMURIUM, Strain/Indicator: TA102, Metabolic Activation: NONE, Method: STANDARD PLATE): inactive; negative
mutagenic call (Test System: AMES SALMONELLA TYPHIMURIUM, Strain/Indicator: TA102, Metabolic Activation: RAT, LIVER, S-9, AROCLOR 1254, Method: STANDARD PLATE): inactive; negative

CNCCCN1c2ccccc2CCc2ccccc21
mutagenic call [2]: inactive; negative
mutagenic call [3]: inactive; negative
mutagenic call [4]: inactive; negative
mutagenic call [5]: inactive; negative
mutagenic call [6]: inactive; negative
mutagenic call (Test System: AMES SALMONELLA TYPHIMURIUM, Strain/Indicator: TA1535, Metabolic Activation: RAT, LIVER, S-9, AROCLOR 1254, Method: STANDARD PLATE): inactive; negative
mutagenic call [7]: inactive; negative
mutagenic call (Test System: AMES SALMONELLA TYPHIMURIUM, Strain/Indicator: TA1537, Metabolic Activation: RAT, LIVER, S-9, AROCLOR 1254, Method: STANDARD PLATE): inactive; negative

O=C/C(=C(\Cl)C(=O)O)C(Cl)Cl
mutagenic call [1]: inactive; negative
mutagenic call (Test System: AMES SALMONELLA TYPHIMURIUM, Strain/Indicator: TA97, Metabolic Activation: RAT, LIVER, S-9, PHENOBARBITAL, Method: STANDARD PLATE): inactive; negative
mutagenic call [2]: inactive; negative
mutagenic call (Test System: AMES SALMONELLA TYPHIMURIUM, Strain/Indicator: TA98, Metabolic Activation: RAT, LIVER, S-9, PHENOBARBITAL, Method: STANDARD PLATE): inactive; negative
mutagenic call [4]: active; positive
mutagenic call (Test System: AMES SALMONELLA TYPHIMURIUM, Strain/Indicator: TA100, Metabolic Activation: RAT, LIVER, S-9, PHENOBARBITAL, Method: STANDARD PLATE): inactive; negative

CCC/C=C(/C=O)CC
mutagenic call (Test System: AMES SALMONELLA TYPHIMURIUM, Strain/Indicator: TA97, Metabolic Activation: HAMSTER, LIVER, S-9, AROCLOR 1254 (10 OR 30%), Method: PREINCUBATION): inactive; negative
mutagenic call (Test System: AMES SALMONELLA TYPHIMURIUM, Strain/Indicator: TA97, Metabolic Activation: NONE, Method: PREINCUBATION): inactive; negative
mutagenic call (Test System: AMES SALMONELLA TYPHIMURIUM, Strain/Indicator: TA97, Metabolic Activation: RAT, LIVER, S-9, AROCLOR 1254 (10 OR 30%), Method: PREINCUBATION): inactive; negative
mutagenic call (Test System: AMES SALMONELLA TYPHIMURIUM, Strain/Indicator: TA98, Metabolic Activation: HAMSTER, LIVER, S-9, AROCLOR 1254 (10 OR 30%), Method: PREINCUBATION): inactive; negative
mutagenic call (Test System: AMES SALMONELLA TYPHIMURIUM, Strain/Indicator: TA98, Metabolic Activation: NONE, Method: PREINCUBATION): inactive; negative
mutagenic call (Test System: AMES SALMONELLA TYPHIMURIUM, Strain/Indicator: TA98, Metabolic Activation: RAT, LIVER, S-9, AROCLOR 1254 (10 OR 30%), Method: PREINCUBATION): inactive; negative
mutagenic call (Test System: AMES SALMONELLA TYPHIMURIUM, Strain/Indicator: TA100, Metabolic Activation: HAMSTER, LIVER, S-9, AROCLOR 1254 (10 OR 30%), Method: PREINCUBATION): inactive; negative
mutagenic call (Test System: AMES SALMONELLA TYPHIMURIUM, Strain/Indicator: TA100, Metabolic Activation: NONE, Method: PREINCUBATION): inactive; negative
mutagenic call (Test System: AMES SALMONELLA TYPHIMURIUM, Strain/Indicator: TA100, Metabolic Activation: RAT, LIVER, S-9, AROCLOR 1254 (10 OR 30%), Method: PREINCUBATION): inactive; negative
mutagenic call (Test System: AMES SALMONELLA TYPHIMURIUM, Strain/Indicator: TA1535, Metabolic Activation: HAMSTER, LIVER, S-9, AROCLOR 1254 (10 OR 30%), Method: PREINCUBATION): inactive; negative
mutagenic call (Test System: AMES SALMONELLA TYPHIMURIUM, Strain/Indicator: TA1535, Metabolic Activation: NONE, Method: PREINCUBATION): inactive; negative
mutagenic call (Test System: AMES SALMONELLA TYPHIMURIUM, Strain/Indicator: TA1535, Metabolic Activation: RAT, LIVER, S-9, AROCLOR 1254 (10 OR 30%), Method: PREINCUBATION): inactive; negative

CN(Cc1ccccc1)C(=O)CBr
mutagenic call (Test System: AMES SALMONELLA TYPHIMURIUM, Strain/Indicator: TA100, Metabolic Activation: MOUSE, LIVER, S-9, AROCLOR 1254, Method: STANDARD PLATE): inactive; negative
mutagenic call [4]: inactive; negative

CCO[Si](C)(C)OCC
mutagenic call [2]: inactive; negative
mutagenic call (Test System: AMES SALMONELLA TYPHIMURIUM, Strain/Indicator: TA98, Metabolic Activation: RAT LIVER S-9, AROCLOR 1254, Method: STANDARD PLATE): inactive; negative
mutagenic call [4]: inactive; negative
mutagenic call (Test System: AMES SALMONELLA TYPHIMURIUM, Strain/Indicator: TA100, Metabolic Activation: RAT LIVER S-9, AROCLOR 1254, Method: STANDARD PLATE): inactive; negative
mutagenic call [6]: inactive; negative
mutagenic call (Test System: AMES SALMONELLA TYPHIMURIUM, Strain/Indicator: TA1535, Metabolic Activation: RAT LIVER S-9, AROCLOR 1254, Method: STANDARD PLATE): inactive; negative
mutagenic call [7]: inactive; negative
mutagenic call (Test System: AMES SALMONELLA TYPHIMURIUM, Strain/Indicator: TA1537, Metabolic Activation: RAT LIVER S-9, AROCLOR 1254, Method: STANDARD PLATE): inactive; negative
mutagenic call (Test System: AMES SALMONELLA TYPHIMURIUM, Strain/Indicator: TA1538, Metabolic Activation: NONE, Method: STANDARD PLATE): inactive; negative
mutagenic call (Test System: AMES SALMONELLA TYPHIMURIUM, Strain/Indicator: TA1538, Metabolic Activation: RAT LIVER S-9, AROCLOR 1254, Method: STANDARD PLATE): inactive; negative
mutagenic call (Test System: E. COLI, Strain/Indicator: P3078 POLA, Metabolic Activation: NONE, Method: SPOT TEST): inactive; negative
mutagenic call (Test System: E. COLI, Strain/Indicator: P3078 POLA, Metabolic Activation: RAT LIVER S-9, AROCLOR 1254, Method: SPOT TEST): inactive; negative
mutagenic call (Test System: E. COLI, Strain/Indicator: W3110, Metabolic Activation: NONE, Method: SPOT TEST): inactive; negative
mutagenic call (Test System: E. COLI, Strain/Indicator: W3110, Metabolic Activation: RAT LIVER S-9, AROCLOR 1254, Method: SPOT TEST): inactive; negative
mutagenic call (Test System: MOUSE LYMPHOMA, Strain/Indicator: L5178Y (TK+/TK-), Metabolic Activation: NONE, Method: SUSPENSION/PLATE): inactive; negative
mutagenic call (Test System: MOUSE LYMPHOMA, Strain/Indicator: L5178Y (TK+/TK-), Metabolic Activation: RAT, LIVER, S-9, Method: SUSPENSION/PLATE): inactive; negative
